Consider 79 compounds from the METLIN SMRT retention time set (Domingo-Almenara et al. 2019).

The data set in a line: gradient 5% acetonitrile 3 min, to 50% in 2 min, to 85% in 15 min, held 3 min, 100 µL/min. As to conditions: column: Zorbax Extend-C18 2.1 x 50 mm; eluents: water / acetonitrile, 0.1% formic acid. An outline of the steps: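 Mixtures of ~100 pure standards were chromatographed on a Zorbax Extend-C18 column (2.1 × 50 mm, 1.8 μm) at 100 μL/min using water and acetonitrile, each with 0.1% formic acid. Detection used a quadrupole time-of-flight mass spectrometer in positive and negative ionization mode, and data collection spanned 3 months. Retention time was obtained from adduct peaks picked computationally and each checked manually.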
The compound `CCc1ccc(-c2cc(C(=O)N3CCCN(c4cc(=O)n(C(C)C)c(=O)n4C(C)C)CC3)[nH]n2)cc1` returned an RP-LC retention time of 946 s. With `Cc1ccc(-c2noc(-c3cccc(S(=O)(=O)NCCCN4CCC(C)CC4)c3)n2)cc1`, the RP-LC retention time came out at 826 s.

Turning to `Cc1nc(C2(C)CCN(S(=O)(=O)c3ccc(C(C)C)cc3)CC2)no1`, the RP-LC retention time worked out at 1050 s.

Regarding `CC(C)Oc1ccccc1CN1CC(F)(F)C[C@H]1COc1ccncc1`, the RP-LC retention time amounted to 752 s. `CC(=O)c1ccc(Oc2ccccc2)cc1` yielded an RP-LC retention time of 920 s.

Take `CCc1noc(-c2nc(-c3ccccc3F)no2)n1`: the RP-LC retention time is 1010 s. Compound `CCC(=O)N1CCc2cc(N3CC(C(=O)Nc4ccc(OC)c(F)c4)CC3=O)ccc21` (centres undefined) had an RP-LC retention time of 738 s. In the case of `Cc1cccc(C(=O)NCCc2c[nH]c3ccc(C)cc23)c1` it was 890 s. In the case of `COc1cc(NC(=O)CSc2ccc(N3CCCC(C(=O)NC4CC4)C3)nn2)cc(OC)c1` (centres undefined), the RP-LC retention time stood at 642 s.

Regarding `CCCN(Cc1ccc(OC)c(OC)c1)Cc1cc(=O)n2ccccc2n1`, the RP-LC retention time stood at 592 s. In the case of `Cc1ccc(N2CC(c3nc(-c4ccc(CNC(=O)C5CC5)s4)no3)CC2=O)cc1C` (centres undefined), the RP-LC retention time amounted to 874 s. In the case of `Cc1cc(C(=O)NCc2ccc(C)o2)c2ccccc2n1` it was 634 s; in that of `CCCn1c2ccccc2c2cnn(CC(=O)NCCN3CCCCC3C)c(=O)c21` (centres undefined), 680 s; in that of `CCOC(=O)C1CCC(CNC(=O)N2CCC(c3nc4ccncc4n3C)C2)CC1` (centres undefined), 548 s. To `Cc1nc(-c2ccc3c(c2)CCN3C(=O)Cc2cccs2)cs1` belongs 965 s; to `NS(=O)(=O)c1ccc(CCNC(=O)c2n[nH]c3ccccc23)cc1`, 612 s. Take `Cc1ccccc1Nc1c(-c2cccc(Cl)c2)nc2cnccn12`: the RP-LC retention time was 1000 s.

`CC(C)Cn1cc2c3c(cccc31)CN(C(=O)Nc1ccc(F)cc1)CC2` yielded an RP-LC retention time of 1070 s. Compound `COc1cccc(CN2CCC3(CC2)C(OC)CN3c2cccc(F)c2)n1` (centres undefined) gave an RP-LC retention time of 777 s. Take `Cc1ccc(NC(=O)N2CCC(N3CCN(Cc4ccccn4)C(=O)C3=O)CC2)cc1`: the RP-LC retention time stood at 604 s. `O=C(NCc1ccccc1F)c1cccc(-c2ccc(N3CCCC3)nc2)c1` returned an RP-LC retention time of 675 s. `CN(C)S(=O)(=O)c1ccc2c(c1)N(CC(=O)NCCc1cccs1)C(=O)C1CCCCN21` (centres undefined) registered an RP-LC retention time of 876 s. On to `COc1cccc(-c2noc(C3CCCN3C(=O)c3ccoc3)n2)c1` (centres undefined), for which the RP-LC retention time came out at 854 s. The compound `Cc1ccc(NC(=O)NC2CCN(c3ccc(C)c(C)c3)C2=O)cc1` (centres undefined) gave an RP-LC retention time of 931 s.

As to `COc1ccccc1CNc1ccc(-c2nc(-c3cccc(F)c3)no2)cn1`, the RP-LC retention time turned out to be 1230 s. In the case of `O=c1ccc(-c2nc(-c3ccc(F)cc3)no2)nn1Cc1ccccc1F` it was 1070 s. In turn, `CC1CC(=O)c2cnc(N3CCN(C)CC3)nc2C1` (centres undefined) gave an RP-LC retention time of 564 s. On to `Cc1nc(-c2csc(S(=O)(=O)N3CCC(C(=O)NCc4ccc(F)cc4)CC3)c2)no1`, for which the RP-LC retention time is 981 s. In the case of `CCOc1ccc(NC(=O)Cn2c(=O)n(-c3ccccc3)c(=O)c3c2cc(C)n3C)cc1` it was 832 s; in that of `CCc1ccc(NC(=O)c2cccn2Cc2noc(C)n2)cc1`, 910 s; in that of `COc1cc(-c2noc(Cn3nc4ccc(-c5ccccc5)nn4c3=O)n2)cc(OC)c1OC`, 862 s.

The compound `O=C(Nc1ccccc1-n1cccc1)c1cn(-c2ccc(F)cc2)nn1` showed an RP-LC retention time of 845 s. In turn, `O=C(c1cccs1)N1CCC(c2nncn2Cc2ccccc2)CC1` came in with an RP-LC retention time of 673 s. Regarding `CCC(=O)N1CCc2c(C(=O)N3CCN(c4ccccc4F)CC3)cccc21`, the RP-LC retention time stood at 872 s. Compound `CCn1c(=O)n(Cc2ccccc2C(F)(F)F)c2cncnc21` returned an RP-LC retention time of 834 s. To `CCC1CN(C(=O)Nc2ccc(OC)cc2)c2ccccc2O1` (centres undefined) belongs 968 s. In the case of `COc1cccc(-c2ccc(=O)n(CCc3nc(-c4cccc(F)c4)no3)n2)c1` it was 970 s; in that of `Cn1nc2ccc(S(=O)(=O)N3CCCCC3)cn2c1=O`, 703 s; in that of `Cn1cc(S(=O)(=O)N2CCC(C(=O)NC3CCCCCC3)CC2)cc1C(=O)N1CCCC1`, 770 s. In the case of `CCc1ccc(OCc2nc(CCN(C)C(=O)Cc3cccs3)no2)cc1` it was 1000 s.

`CCn1nc(C)c(S(=O)(=O)N2CCN(C(=O)C3(c4ccc(OC)cc4)CC3)CC2)c1C`: the RP-LC retention time was determined as 797 s. To `CCOc1ccccc1CN1CCc2nc(N3CCN(CC)CC3)ncc2C1` belongs 1120 s. The compound `Cc1cc(S(=O)(=O)N2CCc3nc(-c4ccccc4)ncc3C2)ccc1F` showed an RP-LC retention time of 1090 s. On to `O=C1c2cccc([N+](=O)[O-])c2C(=O)N1c1nc(-c2ccccc2)cs1`, for which the RP-LC retention time came out at 958 s.

Consider `CCOC(=O)c1ccc(NC(=O)N(Cc2cc(=O)[nH]c3ccccc23)C(C)C)cc1`, for which the RP-LC retention time amounted to 772 s. Consider `O=C(Cc1nc(-c2ccccn2)n[nH]1)Nc1cccc(F)c1`, for which the RP-LC retention time came out at 635 s.

For the compound `Cc1cc2n(n1)CCCN2C(=O)CCC(=O)Nc1ccc(Br)cc1F`, the RP-LC retention time turned out to be 735 s. In the case of `CCOc1ccccc1OCc1nn2c(CSc3ccccc3)nnc2s1` it was 1000 s; in that of `COc1ccc(-c2cc3c4nnc(SCC(=O)Nc5cccc(Cl)c5)n4ccn3n2)cc1`, 911 s.

`Cc1nc(Nc2ccccc2)sc1C(=O)NCC1CC1`: the RP-LC retention time stood at 800 s. For the compound `CC(=O)N1CCc2cc(CNS(=O)(=O)c3ccc(Br)cc3)ccc21`, the RP-LC retention time came to 830 s.

Take `O=C(C1CC1)N1CCc2sc(S(=O)(=O)Nc3cccc(F)c3)cc2C1`: the RP-LC retention time worked out at 829 s.

In turn, `CCS(=O)(=O)N1CC(=O)N(c2cc(C)ccc2C)C(C)(C(=O)NC2CCCCCC2)C1` (centres undefined) had an RP-LC retention time of 951 s. In the case of `Cc1ccc(C2=NC3(CCN(C(=O)c4ccccc4C)CC3)ON2)cc1` it was 855 s.

Regarding `COc1cc(Cl)c(NC(=O)C2CC(=O)N(c3cccc(NC(C)=O)c3)C2)c(OC)c1` (centres undefined), the RP-LC retention time was determined as 711 s. To `COc1ncc(C(=O)NCc2ccccc2Cl)cn1` belongs 737 s; to `CCN1C(=O)C2(c3ccccc31)c1[nH]c3ccccc3c1CCN2C(C)=O` (centres undefined), 779 s. In the case of `Cc1ccccc1CNC(=O)C1(C)CCCN(C(=O)Nc2cc(Cl)ccc2C)C1` (centres undefined) it was 1090 s; in that of `CCN1CCN(Cc2ccc(NC3=NS(=O)(=O)C(c4ccc(OC)cc4)=C3C)cc2)CC1`, 622 s; in that of `CCOC(=O)c1ccc(NC(=O)Cn2cnc3nc(-c4cccnc4)ncc3c2=O)cc1`, 686 s. In the case of `COc1ccc(OC)c(-c2cc(C(=O)NCC#CCN3CCc4ccccc4C3)[nH]n2)c1` it was 592 s; in that of `Cc1ccc(C(=O)N2CCC3(CC2)NC(=O)c2cc(F)ccc2N3C)cc1`, 776 s; in that of `CCCCCCCCN[C@H](C)[C@@H](O)c1ccc(SC(C)C)cc1`, 1030 s.

In turn, `Cc1cc(-c2nnc(C3CCC3)o2)c(C)n1CC(=O)Nc1ccccc1` registered an RP-LC retention time of 846 s. In the case of `COc1ccc(OCC(=O)N2CCc3c(c(-c4nnc(-c5ccccc5Cl)o4)nn3C)C2)cc1` it was 1010 s; in that of `COc1ccccc1NC(=O)C1CCN(C(=O)C2Sc3ccccc3NC2=O)CC1` (centres undefined), 753 s.

Consider `O=C(CCn1cnc2cc(-c3noc(COc4ccc(Cl)cc4)n3)ccc21)N1CCCCCC1`, for which the RP-LC retention time turned out to be 884 s. To `CCOC(=O)C1CCC(CNC(=O)N2CCC(N3CCN(Cc4ccccc4)C(=O)C3=O)CC2)CC1` (centres undefined) belongs 734 s; to `CC1CCc2cc(F)cc3c(=O)c(C(=O)O)cn1c23` (centres undefined), 806 s. To `Cc1cccnc1NC(=O)C1CCN(S(=O)(=O)c2cn(C(C)C)cn2)CC1` belongs 591 s; to `COCCCn1c(=O)c2ccccc2n(Cc2nc(-c3ccc(OC(C)C)cc3)no2)c1=O`, 1120 s; to `O=C(NCCCN1CCOCC1)c1cc(-c2ccccc2)nc2n[nH]c(-c3ccccc3)c12`, 610 s. Consider `COc1ccccc1CNC1=NCCNC12CCN(S(=O)(=O)c1ccccc1C)CC2`, for which the RP-LC retention time came out at 732 s.

For the compound `COC(=O)C1=CN(C2CC2)c2cc(N3CCN(c4ccc(C(C)=O)cc4)CC3)c(F)cc2S1(=O)=O`, the RP-LC retention time worked out at 906 s.

Compound `CCN1c2cc(Cl)ccc2C(=O)NC12CCN(C(=O)Nc1ccc(OC)cc1C)CC2` returned an RP-LC retention time of 841 s. In the case of `O=C(CN1C(=O)CCCc2cc(S(=O)(=O)N3CCCCCC3)ccc21)Nc1ccc(F)cc1F` it was 962 s; in that of `CCN1CCN(c2cc(C)c3cc(NC(=O)C4CCCCC4)ccc3n2)CC1`, 579 s; in that of `Cc1cc(C)n(-c2ccnc(N3CCN(C(C)C)CC3)n2)n1`, 610 s.

Compound `CCCNC(=O)c1cc(=O)[nH]c2c(Cl)cccc12` gave an RP-LC retention time of 1080 s.
